For experiment [1], the system named is pseudotyped HCV GT1b particles (HCVpp). Description: microbe, parasite or virus in culture. Format: cell-based, HCV GT1b Con1 strain. Particulars: for EC50: Hepatitis C virus, GT1B, 72 h, read-out: HCVpp GT-1b (EC50, μM); for pEC50: read-out: HCVpp GT-1b (EC50).
In experiment [2] the test system is pseudotyped VSV G particles (VSVpp). Description: microbe, parasite or virus in culture. To be noted: for EC50: Vesicular stomatitis virus, 72 h, read-out: VSVpp (EC50, μM); for pEC50: read-out: VSVpp (EC50). In kind it is cell-based, vesicular stomatitis virus.

pEC50: −log10 of the molar value. Structures can show the parent of a compound that is named as a salt. Where two headings read alike, the source gives them in different places.

Take `CC(C)(C)OC(=O)N1CC=C(c2c(Cl)cc(Nc3n[nH]c(N)n3)cc2Cl)CC1` [Compound 18, tert-Butyl 4-(4-(5-amino-1H-1,2,4-triazol-3-ylamino)-2,6-dichlorophenyl)-5,6-dihydropyridine-1(2H)-carboxylate]: the results for the EC50 in experiment [1] and in experiment [2] were 0.088 µM and at least 10 µM, respectively.

For `CS(=O)(=O)Nc1ccc(-c2c(Cl)cc(Nc3n[nH]c(N)n3)cc2Cl)cn1` [Compound 8, N-{5-[4-(5-Amino-1H-[1,2,4]triazol-3-ylamino)-2,6-dichloro-phenyl]-pyridin-2-yl}-methanesulfonamide], the EC50 (as a rule, the concentration at which the effect is half-maximal) is 0.386 µM in experiment [1] and at least 10 µM in experiment [2].

As for `Nc1nc(Nc2cc(Cl)c(-c3ccc(=O)[nH]c3)c(Cl)c2)n[nH]1` [Compound 3, 5-[4-(5-Amino-1H-[1,2,4]triazol-3-ylamino)-2,6-dichloro-phenyl]-1H-pyridin-2-one], the EC50 in experiment [1] is 0.364 µM; in experiment [2], at least 10 µM.

As for `Nc1nc(Nc2ccc(-c3cccnn3)c(Cl)c2)n[nH]1` [Compound 14, N3-(3-chloro-4-(pyridazin-3-yl)phenyl)-1H-1,2,4-triazole-3,5-diamine], the figures for the EC50 in experiment [1] and in experiment [2] were 6.52 µM and 15 µM, respectively.

Regarding `Nc1nc(Nc2cc(Cl)c(-c3cncc(Cl)c3)c(Cl)c2)n[nH]1` [Compound 43, N-3-[3,5-Dichloro-4-(5-chloro-pyridin-3-yl)-phenyl]-1H-[1,2,4]triazole-3,5-diamine], the EC50 in experiment [1] turned out to be 0.771 µM; in experiment [2] it was 5.3 µM.

In the case of `Nc1n[nH]c(Nc2cc(F)c(-c3cccnc3)c(C(F)(F)F)c2)n1` [Compound 10, N^5-(3-Fluoro-4-(pyridin-3-yl)-5-trifluoromethylphenyl)-1H-[1,2,4]-triazole-3,5-diamine], the values for the EC50 in experiment [1] and in experiment [2] were 1.24 µM and 34.2 µM, respectively.

In the case of `Cn1cc(-c2c(Cl)cc(Nc3n[nH]c(N)n3)cc2Cl)c(C(F)(F)F)n1` [Compound 42, N-3-[3,5-Dichloro-4-(1-methyl-3-trifluoromethyl-1H-pyrazol-4-yl)-phenyl]-1H-[1,2,4]triazole-3,5-diamine], the EC50 was 0.0527 µM in experiment [1] and 2.4 µM in experiment [2].

Consider `Nc1nc(Nc2cc(Cl)c(C3=NCCCN3)c(Cl)c2)n[nH]1` [Compound 31, N3-(3,5-dichloro-4-(1,4,5,6-tetrahydropyrimidin-2-yl)phenyl)-1H-1,2,4-triazole-3,5-diamine. trifluoroacetic salt], for which the EC50 in experiment [1] came out at 5.45 µM; in experiment [2], 4.7 µM.

In the case of `Nc1nc(Nc2ccc(-n3ccccc3=O)cc2)n[nH]1` [Compound 28, 1-[4-(5-Amino-1H-[1,2,4]triazol-3-ylamino)-phenyl]-1H-pyridin-2-one], the EC50 is 100 µM in experiment [1] and at least 100 µM in experiment [2].

`Nc1nc(Nc2cc(Cl)c(-c3cc[nH]n3)c(Cl)c2)n[nH]1` [Compound 38, N-3-[3,5-Dichloro-4-(1H-pyrazol-3-yl)-phenyl]-1H-[1,2,4]triazole-3,5-diamine]: the EC50 came to 3.39 µM in experiment [1] and 35.8 µM in experiment [2].

Turning to “5-[4-(5-Amino-1H-[1,2,4]triazol-3-ylamino)-2-chloro-6-trifluoromethyl-phenyl]-pyridine-2-sulfonic acid tert-butylamide [Compound 24]”, the pEC50 (as a rule, −log10 of the EC50, conventionally taken in molar units) in experiment [1] was 8.10; in experiment [2], 5.39.

On to `CS(=O)(=O)c1cncc(-c2c(Cl)cc(Nc3n[nH]c(N)n3)cc2Cl)c1` [Compound 2, N*3*-[3,5-Dichloro-4-(5-methanesulfonyl-pyridin-3-yl)-phenyl]-1H-[1,2,4]triazole-3,5-diamine], for which the EC50 is 0.386 µM in experiment [1] and at least 10 µM in experiment [2].

With “N3-(2-chloro-4′-(4-methylpiperazin-1-yl)-6-(trifluoromethyl)biphenyl-4-yl)-1H-1,2,4-triazole-3,5-diamine [Compound 27]”, the pEC50 in experiment [1] is 6.52.

For the compound `Nc1n[nH]c(Nc2cc(F)c(-c3ccc(F)nc3)c(C(F)(F)F)c2)n1` [Compound 9, N^5-(3-Fluoro-4-(6-fluoropyridin-3-yl)-5-trifluoromethylphenyl)-1H-[1,2,4]-triazole-3,5-diamine], the values for the concentration for a half-maximal effect (EC50) in experiment [1] and in experiment [2] were 0.998 µM and 31.1 µM, respectively.

As for `CC(=O)c1sccc1-c1c(Cl)cc(Nc2n[nH]c(N)n2)cc1Cl` [Compound 34, 1-{3-[4-(5-Amino-1H-[1,2,4]triazol-3-ylamino)-2,6-dichloro-phenyl]-thiophen-2-yl}-ethanone], the results for the EC50 in experiment [1] and in experiment [2] were 0.144 µM and 1.8 µM, respectively.

`CNC(=O)c1ccc(-c2c(Cl)cc(Nc3n[nH]c(N)n3)cc2C(F)(F)F)cn1` [Compound 32, 5-(4-(5-amino-1H-1,2,4-triazol-3-ylamino)-2-chloro-6-(trifluoromethyl)phenyl)-N-methylpicolinamide]: the EC50 in experiment [1] was 0.169 µM; in experiment [2] it was 21.8 µM.

`Nc1nc(Nc2cc(Cl)c(-n3cccn3)c(Cl)c2)n[nH]1` [Compound 17, N3-(3,5-dichloro-4-(1H-pyrazol-1-yl)phenyl)-1H-1,2,4-triazole-3,5-diamine]: the EC50 is 4.14 µM in experiment [1] and 34.6 µM in experiment [2].

Regarding `Nc1nc(Nc2cc(Cl)c(-c3ccnnc3)c(Cl)c2)n[nH]1` [Compound 33, N3-(3,5-dichloro-4-(pyridazin-4-yl)phenyl)-1H-1,2,4-triazole-3,5-diamine], the values for the EC50 in experiment [1] and in experiment [2] were 0.78 µM and 10.6 µM, respectively.

Turning to `Nc1nc(Nc2cc(Cl)c(-c3cccnc3)c(Cl)c2)n[nH]1` [Compound 37, N-3-(3,5-Dichloro-4-pyridin-3-yl-phenyl)-1H-[1,2,4]triazole-3,5-diamine], the EC50 in experiment [1] stood at 0.413 µM; in experiment [2], 8.1 µM.

Turning to “N*3*-{3-Chloro-4-[6-(propane-2-sulfonyl)-pyridin-3-yl]-5-trifluoromethyl-phenyl}-1H-[1,2,4]triazole-3,5-diamine [Compound 23]”, the pEC50 in experiment [1] was 6.75; in experiment [2] it was 5.12.

As to “N*3*-(3,5-Dichloro-4-[1,2,4]triazolo[4,3-a]pyridin-3-yl-phenyl)-1H-[1,2,4]triazole-3,5-diamine [Compound 22]”, in experiment [1], the pEC50 was 5.69.

Take “N3-(3-Chloro-4-(1-methyl-1H-tetrazol-5-yl)phenyl)-1H-1,2,4-triazole-3,5-diamine [Compound 15]”: the negative-log EC50 (pEC50) in experiment [1] was 5.17.

Take `COc1cc(-c2c(Cl)cc(Nc3n[nH]c(N)n3)cc2Cl)ccn1` [Compound 6, N3-(3,5-dichloro-4-(2-methoxypyridin-4-yl)phenyl)-1H-1,2,4-triazole-3,5-diamine]: the EC50 in experiment [1] is 0.33 µM; in experiment [2] it was at least 10 µM.

For `Nc1nc(Nc2ccc(-n3ccccc3=O)c(Cl)c2)n[nH]1` [Compound 29, 1-[4-(5-Amino-1H-[1,2,4]triazol-3-ylamino)-2-chloro-phenyl]-1H-pyridin-2-one], the EC50 was found to be 13.7 µM in experiment [1] and 8.1 µM in experiment [2].

As to `Nc1ncc(-c2c(Cl)cc(Nc3n[nH]c(N)n3)cc2Cl)cn1` [Compound 5, N*3*-[4-(2-Amino-pyrimidin-5-yl)-3,5-dichloro-phenyl]-1H-[1,2,4]triazole-3,5-diamine], the EC50 in experiment [1] is 0.1 µM; in experiment [2], 0.4 µM.

Take “N3-(3,5-dichloro-4-(1,2,3,6-tetrahydropyridin-4-yl)phenyl)-1H-1,2,4-triazole-3,5-diamine [Compound 19]”: the pEC50 in experiment [1] was 6.30.

Turning to `CS(=O)(=O)c1ccc(-c2c(Cl)cc(Nc3nc(N)n[nH]3)cc2Cl)cn1` [Compound 11, N^5-(3,5-Dichloro-4-(6-methanesulfonyl-pyridin-3-yl)-phenyl)-1H-[1,2,4]-triazole-3,5-diamine], the EC50 in experiment [1] amounted to 0.271 µM; in experiment [2] it was 2.2 µM.

`NCC1(CO)CN(c2c(Cl)cc(Nc3nc(N)n[nH]3)cc2Cl)C1` [Compound 13, {3-Aminomethyl-1-[4-(5-amino-2H-[1,2,4]triazol-3-ylamino)-2,6-dichlorophenyl]-azetidin-3-yl}-methanol]: the figures for the EC50 in experiment [1] and in experiment [2] were 10 µM and at least 10 µM, respectively.

In the case of `Nc1nc(Nc2cc(Cl)c(-n3ccccc3=O)c(Cl)c2)n[nH]1` [Compound 30, 1-[4-(5-Amino-1H-[1,2,4]triazol-3-ylamino)-2,6-dichloro-phenyl]-1H-pyridin-2-one], the values for the EC50 in experiment [1] and in experiment [2] were 5.75 µM and 5.6 µM, respectively.

As for `CC(C)(NS(=O)(=O)c1ccc(-c2c(Cl)cc(Nc3n[nH]c(N)n3)cc2C(F)(F)F)cn1)C(F)(F)F` [Compound 25, 5-[4-(5-Amino-1H-[1,2,4]triazol-3-ylamino)-2-chloro-6-trifluoromethyl-phenyl]-pyridine-2-sulfonic acid (2,2,2-trifluoro-1,1-dimethyl-ethyl)-amide], the EC50 in experiment [1] was 0.005 µM; in experiment [2] it was at least 10 µM.

Turning to “N3-[3-Chloro-4-(1,2,3,6-tetrahydro-pyridin-4-yl)-5-trifluoromethyl-phenyl]-1H-[1,2,4]triazole-3,5-diamine hydrochloride [Compound 21]”, the pEC50 in experiment [1] is 6.25.

On to `Nc1nc(Nc2cc(Cl)c(-c3ccc(C(F)(F)F)nc3)c(Cl)c2)n[nH]1` [Compound 41, N-3-[3,5-Dichloro-4-(6-trifluoromethyl-pyridin-3-yl)-phenyl]-1H-[1,2,4]triazole-3,5-diamine], for which the EC50 came out at 0.703 µM in experiment [1] and 32.6 µM in experiment [2].

With `CC(C)(C)OC(=O)N1CC2(C1)CN(c1c(Cl)cc(Nc3nc(N)n[nH]3)cc1Cl)C2` [Compound 12, 6-[4-(5-Amino-2H-[1,2,4]triazol-3-ylamino)-2,6-dichlorophenyl]-2,6-diaza-spiro[3.3]heptane-2-carboxylic acid tert-butyl ester], the values for the EC50 in experiment [1] and in experiment [2] were 0.216 µM and at least 10 µM, respectively.

For `COc1ncc(-c2c(Cl)cc(Nc3n[nH]c(N)n3)cc2Cl)cn1` [Compound 40, N-3-[3,5-Dichloro-4-(2-methoxy-pyrimidin-5-yl)-phenyl]-1H-[1,2,4]triazole-3,5-diamine], the EC50 in experiment [1] amounted to 0.52 µM; in experiment [2], 3.3 µM.

On to “N3-(3-chloro-4-(1-methyl-1H-1,2,4-triazol-5-yl)phenyl)-1H-1,2,4-triazole-3,5 diamine [Compound 16]”, for which the pEC50 in experiment [1] is 4.46.

The record behind these values is patent publication US9540345B2, “Antiviral compounds” (priority 2013, dated 2017).
